Results reported in patent publication US9969758B2, “Antimicrobial compounds” (BIOMERIEUX, priority 2014, dated 2018).
Values after ≈ are worked out from the molar mass of the structure shown.

Tested on: E. cloacae (27)
Test: MIC by agar dilution
Type: cell-based, Enterobacter cloacae
Procedure, shortened: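 Agar dilution on peptone-free medium with 2% lysed horse blood, NAD and hemin (25.0 μg/mL each), compounds 0.0031 to 8.0 μg/mL; inoculum 10 000 CFU/spot, 22 h at 37° C. Fosfomycin tested in IsoSensitest medium plus 25.0 μg/mL glucose-6-phosphate; at least two replicates.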

Q: `C[C@H](N)C(=O)N[C@@H](C)P(=O)(O)O` [Alafosfalin, L-alanyl-L-1-aminoethylphosphonic acid] was tested. Which “activity relative to fosfomycin” value (E. cloacae) did it give?
A: ~32 times

Q: And the “MIC Range” value (E. cloacae (27))?
A: 0.125 to 4 µg/mL

Q: And the “concentration by which all the isolates were inhibited” value (E. cloacae isolates (n=27))?
A: 4 µg/mL

Q: And the MIC50 (Enterobacter cloacae, E. cloacae (27), read-out: MIC50)?
A: 1 µg/mL (≈ 5.1 µM)

Q: And the MIC90 (Enterobacter cloacae, E. cloacae (27), read-out: MIC90)?
A: 1 µg/mL (≈ 5.1 µM)

Q: What about the MIC (Enterobacter cloacae, E. cloacae (27), read-out: Modal MIC (most frequent MIC)) of the same compound?
A: 1 µg/mL (≈ 5.1 µM)
